Patent US9303015B2, “Heteroaryl linked quinolinyl modulators of RORγt” (Janssen Pharmaceutica NV, priority 2012, dated 2016)
Where a name gives a salt, the structure may show the parent alone.

What was measured:
human RORγt LBD = human RORγt LBD (Homo sapiens (Human), UniProt P51449); assay: RORγt reporter assay (GAL4-RORγt LBD luciferase, HEK293T cells); type: cell-based; details: for RORγt reporter Assay, % inhibition @ 6 μM: HEK293T cells; for inhibition at 6 µM: HEK-293T, read-out: RORγt reporter Assay, % inhibition @ 6 μM, 6 μM, HEK293T cells
Text: A reporter assay was used to test functional activity of RORγt modulatory compounds on transcriptional activation driven by the RORγt LBD. Cells used in the assay were co-transfected with two constructs. The first construct, pBIND-RORγt LBD, contained the wild type human RORγt LBD fused to the DNA binding domain of the GAL4 protein. The second construct, pGL4.31 (Promega Cat no. C935A), contained multiple GAL4 responsive DNA elements upstream of firefly luciferase. […] The mutant construct was called pBIND-RORγt-AF2. […] The pBIND vector contains the GAL4 DNA Binding Domain (GAL4 DBD) and the renilla luciferase gene under control of the SV40 promoter. Renilla luciferase expression serves as a control for transfection efficiency and cell viability.
The reporter assay was performed by transiently transfecting HEK293T cells with 5 μg of pBIND-RORγt LBD or pBIND-RORγt LBD-AF2 and 5 μg pGL4.31 (Promega Cat no. C935A) using Fugene 6 (Invitrogen Cat no. E2691) at a 1:6 ratio of DNA: Fugene 6 in a T-75 flask in which cells were at least 80% confluent. Twenty four hours after bulk transfection, cells were plated into 96-well plates at 50,000 cells/well in phenol-red free DMEM containing 5% Lipid Reduced FCS and Pen/Strep. Six hours after plating, cells were treated with compounds for 24 hours. Media was removed and cells were lysed with 50 μL 1x Glo Lysis Buffer (Promega). Dual Glo Luciferase Reagent (50 μL/well) was then added and firefly luciferase luminescence was read on an Envision after a ten minute incubation. Finally, Stop and Glo reagent (50 μL/well) was added and renilla luciferase luminescence was read on an Envision after a ten minute incubation. To calculate the effect of compounds on RORγt activity, the ratio of firefly to renilla luciferase was determined and plotted against compound concentration. Agonist compounds increase RORγt-driven luciferase expression, and antagonist or inverse agonist compounds decrease luciferase expression.

[1] = test system: IL-17 production by CD4 T cells; assay: Human Th17 assay; type: cell-based; details: IL-17 in supernatant after 3 days, human CD4+ T cells under Th17 differentiation
Text: The human Th17 assay tests the effect of RORγt modulatory compounds on IL-17 production by CD4 T cells under conditions which favor Th17 differentiation.
Total CD4^+ T cells were isolated from the peripheral blood mononuclear cells (PBMC) of healthy donors using a CD4^+ T cell isolation kit II, following the manufacturer's instructions (Miltenyi Biotec). Cells were resuspended in a medium of RPMI-1640 supplemented with 10% fetal bovine serum, penicillin, streptomycin, glutamate, and β-mercaptoethanol and were added to 96-well plates at 1.5×10^5 per 100 μL per well. 50 μL of compound at titrated concentrations in DMSO were added into each well at final DMSO concentration at 0.2%. Cells were incubated for 1 hour, then 50 μL of Th17 cell differentiation medium was added to each well. The final concentrations of antibodies and cytokines (R&D Systems) in differentiation medium were: 3×10^6/mL anti-CD3/CD28 beads (prepared using human T cell activation/expansion kit, Miltenyi Biotec), 10 μg/mL anti-IL4, 10 μg/mL anti-IFNγ, 10 ng/mL IL113, 10 ng/mL IL23, 50 ng/mL IL6, 3 ng/mL TGFβ and 20 U/mL IL2. Cells were cultured at 37° C. and 5% CO2 for 3 days. Supernatants were collected and the accumulated IL-17 in culture was measured by using MULTI-SPOT® Cytokine Plate following manufacture's instruction (Meso Scale Discovery). The plate was read using Sector Imager 6000, and IL-17 concentration was extrapolated from the standard curve. The IC50s were determined by GraphPad.

human RORγt LBD, sequence (P51449 258-518): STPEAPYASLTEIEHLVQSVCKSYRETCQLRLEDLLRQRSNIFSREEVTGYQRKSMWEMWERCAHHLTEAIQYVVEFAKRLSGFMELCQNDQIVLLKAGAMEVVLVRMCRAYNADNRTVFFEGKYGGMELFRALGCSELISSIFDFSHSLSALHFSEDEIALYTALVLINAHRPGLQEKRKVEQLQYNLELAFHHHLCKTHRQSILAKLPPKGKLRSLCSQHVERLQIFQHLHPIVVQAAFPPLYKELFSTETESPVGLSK

Row | RORγt reporter Assay, % inhibition @ 6 μM (human RORγt LBD) | IC50 [1] | inhibition at 6 µM (human RORγt LBD) | SMILES | IC50 ([1]; Homo sapiens, CD4+ T, 72 h)
1 | 88% | 0.61 µM |  | CCOc1nc2ccc(C(O)(c3ccc(Cl)cc3)c3cncn3C)cc2c(Cl)c1Oc1ccccc1 (single isomer, unassigned) [Example 2a, (4-Chloro-2-ethoxy-3-phenoxyquinolin-6-yl)(4-chlorophenyl)(1-methyl-1H-imidazol-5-yl)methanol.TFA] | 
2 |  | 0.66 µM | 92% | CCOc1nc2ccc(C(O)(c3ccc(Cl)cc3)c3cncn3C)cc2c(Cl)c1Oc1ccccc1 (single isomer, unassigned) [Example 2b] | 
3 | 92% | 0.21 µM |  | CCOc1nc2ccc(C(O)(c3ccc(Cl)cc3)c3cncn3C)cc2c(Cl)c1Oc1ccccc1 (single isomer, unassigned) [Example 2c] | 
4 | 104% |  |  | CCN(CC)c1nc2ccc(C(O)(c3ccc(Cl)cc3)c3cncn3C)cc2c(Cl)c1Oc1ccccc1 (single isomer, unassigned) [Example 3c, (4-Chloro-2-(diethylamino)-3-phenoxyquinolin-6-yl)(4-chlorophenyl)(1-methyl-1H-imidazol-5-yl)methanol] | 0.12 µM
5 |  |  | 98% | CCN(CC)c1nc2ccc(C(O)(c3ccc(OC)nc3)c3cncn3C)cc2c(Cl)c1Oc1ccccc1 (single isomer, unassigned) [Example 5b, (4-Chloro-2-(diethylamino)-3-phenoxyquinolin-6-yl)(6-methoxypyridin-3-yl)(1-methyl-1H-imidazol-5-yl)methanol] | 0.085 µM
6 | 104% | 0.11 µM |  | CCN(CC)c1nc2ccc(C(O)(c3ccc(OC)nc3)c3cncn3C)cc2c(Cl)c1Oc1ccccc1 (single isomer, unassigned) [Example 5c, (4-Chloro-2-(diethylamino)-3-phenoxyquinolin-6-yl)(6-methoxypyridin-3-yl)(1-methyl-1H-imidazol-5-yl)methanol] | 
7 |  | 0.05 µM | 93% | CCN(CC)c1nc2ccc(C(O)(c3ccc(C(F)(F)F)nc3)c3cncn3C)cc2c(Cl)c1Oc1ccccc1 (single isomer, unassigned) [Example 6b, (4-Chloro-2-(diethylamino)-3-phenoxyquinolin-6-yl)(1-methyl-1H-imidazol-5-yl)(6-(trifluoromethyl)pyridin-3-yl)methanol] | 
8 |  |  |  | Cn1cncc1C(O)(c1ccc(C(F)(F)F)nc1)c1ccc2nc(N3CCCC3)c(Oc3ccc(C#N)cc3)c(Cl)c2c1 (stereo not shown) [Example 33, 4-((4-Chloro-6-(hydroxy(1-methyl-1H-imidazol-5-yl)(6-(trifluoromethyl)pyridin-3-yl)methyl)-2-(pyrrolidin-1-yl)quinolin-3-yl)oxy)benzonitrile] | 0.088 µM
9 |  |  |  | CN(c1ccccc1)c1c(Cl)nc2ccc(C(O)(c3cccnc3)c3cccc(Cl)c3)cc2c1Cl (stereo not shown) [Example 35, (3-Chlorophenyl)(2,4-dichloro-3-(methyl(phenyl)amino)quinolin-6-yl)(pyridin-3-yl)methanol] | ~1 µM
10 |  |  |  | CCN(c1ccccc1)c1c(Cl)nc2ccc(C(O)(c3cccnc3)c3cccc(Cl)c3)cc2c1Cl (stereo not shown) [Example 39, (3-Chlorophenyl)(2,4-dichloro-3-(ethyl(phenyl)amino)quinolin-6-yl)(pyridin-3-yl)methanol] | > 6 µM

Row | SMILES | RORγt reporter Assay, % inhibition @ 6 μM (human RORγt LBD) | IC50 [1] | inhibition at 6 µM (human RORγt LBD) | IC50 ([1]; Homo sapiens, CD4+ T, 72 h)
11 | Cn1cncc1C(O)(c1ccc(C(F)(F)F)nc1)c1ccc2nc(N3CCC3)c(Oc3ccc(C#N)cc3)c(Cl)c2c1 (single isomer, unassigned) [Example 31b, 4-((2-(Azetidin-1-yl)-4-chloro-6-(hydroxy(1-methyl-1H-imidazol-5-yl)(6-(trifluoromethyl)pyridin-3-yl)methyl)quinolin-3-yl)oxy)benzonitrile] |  | ~0.1 µM |  | 
12 | Cn1cncc1C(O)(c1ccc(C(F)(F)F)nc1)c1ccc2nc(N3CCC3)c(Oc3ccc(C#N)cc3)c(Cl)c2c1 (single isomer, unassigned) [Example 31c, 4-((2-(Azetidin-1-yl)-4-chloro-6-(hydroxy(1-methyl-1H-imidazol-5-yl)(6-(trifluoromethyl)pyridin-3-yl)methyl)quinolin-3-yl)oxy)benzonitrile] |  | 0.017 µM |  | 
